Reference: patent US9598421B2, “Imidazopyridazine compounds” (Pfizer Inc., priority 2014, dated 2017)
Where two headings read alike, the source gives them in different places.

Columns and labels:
Format in all cases: biochemical
Human PDE4C = Human PDE4C (Homo sapiens (Human), UniProt Q08493); assay: PDE4C Scintillation Proximity Assay (SPA), inhibition of enzyme activity; conditions: read-out: Human PDE4C FL
Procedure: (§1) The PDE4A3, PDE4B1, PDE4C1 and PDE4D3 assays use the Scintillation Proximity Assay (SPA) technology to measure the inhibition of human recombinant PDE4A1, PDE4B3, PDE4C1, and PDE4D3 enzyme activity by compounds in vitro. The PDE4A1, PDE4B3, PDE4C1, and PDE4D3 assays are run in parallel using identical parameters, except for the concentration of enzyme (80 pM PDE4A3, 40 pM PDE4B3, 40 pM PDE4C1 and 10 pM PDE4D). […] Reactions are incubated for 30 min at 25° C. The addition of 20 uL of 8 mg/ml yitrium silicate SPA beads (Perkin Elmer) stops the reaction. The plates are sealed (TopSeal, Perkin Elmer) and the beads are allowed to settle for 8 hrs, after which they are read on the Trilux Microbeta overnight.

Human PDE4D = Human PDE4D (Homo sapiens (Human), UniProt Q08499); assay: PDE4D Scintillation Proximity Assay (SPA), inhibition of enzyme activity; conditions: read-out: Human PDE4D FL
Human PDE4A = Human PDE4A (Homo sapiens (Human), UniProt P27815); assay: PDE4A Scintillation Proximity Assay (SPA), inhibition of enzyme activity; conditions: read-out: Human PDE4A FL
Procedure: as §1

[1] = human recombinant enzyme, 1 μM cAMP substrate, 30 min at 25° C., geometric mean of 2-9 determinations unless otherwise indicated

Sequence of Human PDE4C (Q08493 2-712): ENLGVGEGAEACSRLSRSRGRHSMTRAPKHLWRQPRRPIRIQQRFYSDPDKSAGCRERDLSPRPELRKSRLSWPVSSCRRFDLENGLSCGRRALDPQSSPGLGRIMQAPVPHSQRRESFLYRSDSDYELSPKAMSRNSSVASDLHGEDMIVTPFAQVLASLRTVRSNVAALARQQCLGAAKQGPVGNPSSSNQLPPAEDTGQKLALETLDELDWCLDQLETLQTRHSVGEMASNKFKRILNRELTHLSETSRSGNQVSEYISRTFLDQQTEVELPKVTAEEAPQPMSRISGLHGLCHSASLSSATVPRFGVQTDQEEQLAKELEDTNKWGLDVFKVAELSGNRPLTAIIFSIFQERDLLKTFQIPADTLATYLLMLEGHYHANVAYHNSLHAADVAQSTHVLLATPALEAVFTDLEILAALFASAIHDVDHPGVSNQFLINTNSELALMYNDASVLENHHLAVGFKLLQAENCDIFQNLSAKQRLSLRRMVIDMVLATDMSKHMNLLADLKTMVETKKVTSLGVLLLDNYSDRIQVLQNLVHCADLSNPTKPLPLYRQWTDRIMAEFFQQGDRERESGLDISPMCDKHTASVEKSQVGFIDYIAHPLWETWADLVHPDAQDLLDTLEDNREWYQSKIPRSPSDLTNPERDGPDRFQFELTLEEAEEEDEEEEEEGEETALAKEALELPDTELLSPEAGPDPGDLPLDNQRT
Sequence of Human PDE4A (P27815 other isoform, or with tags, fused parts or gaps): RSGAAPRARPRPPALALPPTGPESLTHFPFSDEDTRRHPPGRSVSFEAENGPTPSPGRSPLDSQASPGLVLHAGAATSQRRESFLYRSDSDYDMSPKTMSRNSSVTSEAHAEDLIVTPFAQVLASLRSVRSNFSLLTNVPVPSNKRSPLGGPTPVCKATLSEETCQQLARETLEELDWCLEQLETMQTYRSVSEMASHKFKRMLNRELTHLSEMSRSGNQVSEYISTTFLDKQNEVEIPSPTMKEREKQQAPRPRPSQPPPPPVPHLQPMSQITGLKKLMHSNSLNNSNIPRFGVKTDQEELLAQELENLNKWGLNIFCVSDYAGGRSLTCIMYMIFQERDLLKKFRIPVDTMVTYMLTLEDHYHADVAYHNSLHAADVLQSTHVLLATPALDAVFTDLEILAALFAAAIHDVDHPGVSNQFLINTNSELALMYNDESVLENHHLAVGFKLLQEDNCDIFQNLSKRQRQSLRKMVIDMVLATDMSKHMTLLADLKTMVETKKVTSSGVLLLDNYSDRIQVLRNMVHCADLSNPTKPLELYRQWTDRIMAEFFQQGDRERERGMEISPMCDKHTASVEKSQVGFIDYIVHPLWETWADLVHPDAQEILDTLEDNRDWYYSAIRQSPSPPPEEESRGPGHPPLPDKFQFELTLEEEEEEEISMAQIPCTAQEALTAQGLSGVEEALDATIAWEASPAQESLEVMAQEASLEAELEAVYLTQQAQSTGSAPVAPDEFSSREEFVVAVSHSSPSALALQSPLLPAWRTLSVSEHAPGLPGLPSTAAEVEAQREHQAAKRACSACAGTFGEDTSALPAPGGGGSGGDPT
Sequence of Human PDE4D (Q08499 186-808): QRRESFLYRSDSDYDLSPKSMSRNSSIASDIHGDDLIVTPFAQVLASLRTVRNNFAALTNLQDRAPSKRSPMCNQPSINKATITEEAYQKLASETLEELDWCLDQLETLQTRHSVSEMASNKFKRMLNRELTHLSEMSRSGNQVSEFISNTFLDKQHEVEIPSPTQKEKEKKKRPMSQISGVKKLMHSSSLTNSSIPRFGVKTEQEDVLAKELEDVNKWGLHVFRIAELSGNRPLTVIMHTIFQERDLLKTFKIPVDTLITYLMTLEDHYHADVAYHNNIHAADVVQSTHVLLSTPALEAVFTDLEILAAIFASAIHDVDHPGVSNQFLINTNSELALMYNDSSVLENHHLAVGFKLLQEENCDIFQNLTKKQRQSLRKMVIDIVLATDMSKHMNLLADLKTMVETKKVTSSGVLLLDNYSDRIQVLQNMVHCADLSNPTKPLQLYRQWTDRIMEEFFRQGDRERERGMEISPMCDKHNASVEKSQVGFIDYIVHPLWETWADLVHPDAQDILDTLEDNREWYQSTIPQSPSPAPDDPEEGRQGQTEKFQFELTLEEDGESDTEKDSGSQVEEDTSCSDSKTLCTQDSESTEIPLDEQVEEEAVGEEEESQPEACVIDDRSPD

## N#Cc1ccc(-c2c(C(=O)NC3CC3)nc3cccnn23)cn1 [Example 5, 3-(6-Cyanopyridin-3-yl)-N-cyclopropylimidazo[1,2-b]pyridazine-2-carboxamide]
Human PDE4C; [1]
  IC50: 208 nM
Human PDE4D
  IC50: > 26600 nM
Human PDE4A; [1]
  IC50: 40.2 nM

## Cc1cc(-c2c(C(=O)N3CCC3)nc3cccnn23)cc(C)c1F [Example 53, azetidin-1-yl[3-(4-fluoro-3,5-dimethylphenyl)imidazo[1,2-b]pyridazin-2-yl]methanone]
Human PDE4C; [1]
  IC50: 153 nM
Human PDE4D; [1]
  IC50: 3110 nM
Human PDE4A; [1]
  IC50: 17.8 nM

## O=C(NC1CC1)c1nc2cccnn2c1-c1cc(F)cc(Cl)c1 [Example 35, 3-(3-chloro-5-fluorophenyl)-N-cyclopropylimidazo[1,2-b]pyridazine-2-carboxamide]
Human PDE4C; [1]
  IC50: 37 nM
Human PDE4D; [1]
  IC50: 1220 nM
Human PDE4A; [1]
  IC50: 35.7 nM

## Cc1cc(Cl)ccc1-c1c(C(=O)N[C@@H]2C[C@@H]2F)nc2cccnn12 [Example 70, 3-(4-chloro-2-methylphenyl)-N-[(1R,2S)-2-fluorocyclopropyl]imidazo[1,2-b]pyridazine-2-carboxamide]
Human PDE4C; [1]
  IC50: 90 nM
Human PDE4D; [1]
  IC50: 5760 nM
Human PDE4A; [1]
  IC50: 36.4 nM

## O=C(NC1CC1)c1nc2cccnn2c1-c1ccc(OC(F)F)nc1 [Example 87, N-cyclopropyl-3-[6-(difluoromethoxy)pyridin-3-yl]imidazo[1,2-b]pyridazine-2-carboxamide]
Human PDE4C; [1]
  IC50: 397 nM
Human PDE4D; [1]
  IC50: 6790 nM
Human PDE4A; [1]
  IC50: 240 nM

## Cn1cc(NC(=O)c2nc3cccnn3c2-c2ccc(Cl)c(F)c2)cn1 [Example 7, 3-(4-Chloro-3-fluorophenyl)-N-(1-methyl-1H-pyrazol-4-yl)imidazo[1,2-b]pyridazine-2-carboxamide]
Human PDE4C
  IC50: 2.35 nM
Human PDE4D
  IC50: 34.5 nM
Human PDE4A
  IC50: 2.77 nM

## CCNC(=O)c1nc2cccnn2c1-c1cc(F)c(Cl)cc1F [Example 96, 3-(4-chloro-2,5-difluorophenyl)-N-ethylimidazo[1,2-b]pyridazine-2-carboxamide]
Human PDE4C; [1]
  IC50: 29.2 nM
Human PDE4D; [1]
  IC50: 908 nM
Human PDE4A; [1]
  IC50: 4.58 nM

## O=C(N[C@@H]1C[C@@H]1F)c1nc2cccnn2c1-c1ccc(Cl)cc1F [Example 68, 3-(4-chloro-2-fluorophenyl)-N-[(1R,2S)-2-fluorocyclopropyl]imidazo[1,2-b]pyridazine-2-carboxamide]
Human PDE4C; [1]
  IC50: 25.1 nM
Human PDE4D; [1]
  IC50: 2620 nM
Human PDE4A; [1]
  IC50: 10.6 nM

## N#Cc1cc(F)c(-c2c(C(=O)N3CCC3)nc3cccnn23)cc1F [Example 24, 4-[2-(azetidin-1-ylcarbonyl)imidazo[1,2-b]pyridazin-3-yl]-2,5-difluorobenzonitrile]
Human PDE4C; [1]
  IC50: 59.7 nM
Human PDE4D; [1]
  IC50: > 2150 nM
Human PDE4A; [1]
  IC50: 5.04 nM

## O=C(c1nc2cccnn2c1-c1ccc(Cl)cc1)N1CC(F)(F)C1 [Example 61, [3-(4-chlorophenyl)imidazo[1,2-b]pyridazin-2-yl](3,3-difluoroazetidin-1-yl)methanone]
Human PDE4C; [1]
  IC50: 126 nM
Human PDE4D; [1]
  IC50: 1930 nM
Human PDE4A; [1]
  IC50: 144 nM

## Cc1cc2ncnn2cc1-c1c(C(=O)NC2CC2)nc2cccnn12 [Example 89, N-cyclopropyl-3-(7-methyl[1,2,4]triazolo[1,5-a]pyridin-6-yl)imidazo[1,2-b]pyridazine-2-carboxamide]
Human PDE4C; [1]
  IC50: 3760 nM
Human PDE4D; [1]
  IC50: > 17200 nM
Human PDE4A; [1]
  IC50: 829 nM

## O=C(NC1CC1)c1nc2cccnn2c1-c1cc(F)c(Cl)c(F)c1 [Example 104, 3-(4-chloro-3,5-difluorophenyl)-N-cyclopropylimidazo[1,2-b]pyridazine-2-carboxamide]
Human PDE4C; [1]
  IC50: 4.69 nM
Human PDE4D; [1]
  IC50: 145 nM
Human PDE4A; [1]
  IC50: < 0.488 nM

## O=C(NC1CC1)c1nc2cccnn2c1-c1ccc2ncoc2c1 [Example 88, 3-(1,3-benzoxazol-6-yl)-N-cyclopropylimidazo[1,2-b]pyridazine-2-carboxamide]
Human PDE4C; [1]
  IC50: 136 nM
Human PDE4D; [1]
  IC50: 10400 nM
Human PDE4A; [1]
  IC50: 45 nM

## CNC(=O)c1nc2cccnn2c1-c1cc(F)c(Cl)cc1F [Example 93, 3-(4-chloro-2,5-difluorophenyl)-N-methylimidazo[1,2-b]pyridazine-2-carboxamide]
Human PDE4C; [1]
  IC50: 134 nM
Human PDE4D; [1]
  IC50: 4110 nM
Human PDE4A; [1]
  IC50: 62.9 nM
